According to patent US12583858B2 (Genentech, Inc., priority 2015, dated 2026):
pEC50: −log10 of the molar value.

Molecular target: T1, TDO2 (Homo sapiens, UniProt P48775)
T1 construct: decreased levels of NFK in SW48 cells (high TDO expressing cells)
Assay: TDO2 cell assay (NFK GreenScreen, SW48 cells)
Format: cell-based
Settings: SW48 cells (high TDO expressing), 200 uM tryptophan, 24 hours; Table 3; read-out: TDO2 Cell Fluor EC50
Experimental: The NFK GreenScreen™ (NTRC, Netherlands) uses a specific chemical probe that binds to N-Formylkynurenine (NFK), a product of tryptophan catabolism facilitated by IDO or TDO and causes fluorescence at 510 nm when excited at 410 nm. […] The assay is multiplexed with Cell Titer-Glo® (Promega) to determine if compounds are cytotoxic. […] Cells are counted on a Vi-Cell (Beckman Coulter). SW48 cells are diluted to 1×10^6 cells/ml in assay media. A172 cells are diluted to 0.24×10^6 cells/ml in assay media. […] 5 ul of assay media containing 1.2 mM tryptophan are added to the SW48 cells for a final concentration of 200 uM tryptophan in each well. 5 ul of assay media containing 600 uM tryptophan and 600 ng/ml IFNγ are added to the A172 cells for a final concentration of 100 uM tryptophan and 100 ng/ml IFNγ in each well. The final DMSO concentration is 0.5%. Cell plates are placed at room temperature in a closed TC hood with the blower off to allow cells to settle for approximately 30 min. Plates are then moved to an incubator set at 37° C., 5% CO2 for 24 hours. After the 24 hour compound incubation, 8 ul of NFK green reagent is added to each well with a Multidrop™ Combi dispenser (Thermo Scientific). Plates are sealed and incubated at 37° C., 5% CO2 for 5 hours, then read on a PHERAstar® (BMG labtech). Data are analyzed by normalizing to DMSO and high inhibitor controls. After the plates have been read for NFK green, 25 ul of Cell Titer-Glo® (Promega) are added to each well, incubated for 15 minutes at room temperature, and read on the Envision (Perkin Elmer). Cell Titer-Glo data are analyzed by normalizing to the DMSO controls. Four-parameter curve fitting is used and EC50 data are reported.

T1 sequence (P48775 whole entry): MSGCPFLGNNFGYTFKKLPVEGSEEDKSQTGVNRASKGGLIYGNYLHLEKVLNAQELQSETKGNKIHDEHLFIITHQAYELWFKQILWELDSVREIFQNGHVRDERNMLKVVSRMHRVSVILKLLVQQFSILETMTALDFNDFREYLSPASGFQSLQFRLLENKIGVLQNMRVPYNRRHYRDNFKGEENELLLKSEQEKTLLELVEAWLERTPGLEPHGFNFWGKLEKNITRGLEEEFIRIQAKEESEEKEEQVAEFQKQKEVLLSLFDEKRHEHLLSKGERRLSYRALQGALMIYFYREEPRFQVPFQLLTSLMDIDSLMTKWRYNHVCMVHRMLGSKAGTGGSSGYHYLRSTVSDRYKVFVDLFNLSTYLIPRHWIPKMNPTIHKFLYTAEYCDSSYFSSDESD

Row | SMILES | pEC50
1 | O=S(=O)(C1CC1)N1CCC(C2c3ccccc3-c3cncn32)C(O)C1 (mixture of isomers) [Example 77b, (3S,4SR)-1-(cyclopropylsulfonyl)-4-((S)-5H-imidazo[5,1-a]isoindol-5-yl)piperidin-3-ol] | 7.07
2 | OC1(C2c3ccccc3-c3cncn32)CCOCC1 (racemic) [Example 43, 4-(5H-imidazo[5,1-a]isoindol-5-yl)tetrahydro-2H-pyran-4-ol] | 5.54
3 | CC(C)(O)C1c2ccccc2-c2cncn21 (racemic) [Example 44, 2-(5H-imidazo[5,1-a]isoindol-5-yl)propan-2-ol] | 5.16
4 | OC1(C2c3ccccc3-c3cncn32)COC1 (racemic) [Example 48, 3-(5H-imidazo[5,1-a]isoindol-5-yl)oxetan-3-ol] | 5.14
5 | OC1(C2c3ccccc3-c3cncn32)CCC(F)(F)CC1 (racemic) [Example 53, 4,4-difluoro-1-(5H-imidazo[5,1-a]isoindol-5-yl)cyclohexan-1-ol] | 6.77
6 | OC1(C2c3ccccc3-c3cncn32)CC(CF)(CF)C1 (racemic) [Example 54, 3,3-bis(fluoromethyl)-1-(5H-imidazo[5,1-a]isoindol-5-yl)cyclobutan-1-ol] | 5.47
7 | OC1(C2c3ccccc3-c3cncn32)CCCC1 (racemic) [Example 55, 1-(5H-imidazo[5,1-a]isoindol-5-yl)cyclopentan-1-ol] | 5.80
8 | O=S1(=O)CC(C2c3ccccc3-c3cncn32)C(O)c2ccccc21 (racemic) [Example 96a, 4-hydroxy-3-(5H-imidazo[5,1-a]isoindol-5-yl)thiochromane 1,1-dioxide] | 6.05
9 | C[C@@](O)(C1CCOCC1)[C@@H]1c2ccccc2-c2cncn21 (racemic) [Example 131a, Mixture of(S)-1-((R)-5H-imidazo[5,1-a]isoindol-5-yl)-1-(tetrahydro-2H-pyran-4-yl)ethan-1-ol and (R)-1-((S)-5H-imidazo[5,1-a]isoindol-5-yl)-1-(tetrahydro-2H-pyran-4-yl)ethan-1-ol] | 4.72
10 | CC1(C)CC(O)(C2c3ccccc3-c3cncn32)C1 (racemic) [Example 147a, 1-(5H-imidazo[5,1-a]isoindol-5-yl)-3,3-dimethylcyclobutan-1-ol] | 6.09
11 | O[C@@H]1CC[C@H]1[C@@H]1c2ccccc2-c2cncn21 (single isomer, unassigned) [Example 01f] | < 4.60
12 | OC1CCC1C1c2ccccc2-c2cncn21 (single isomer, unassigned) [Example 01g] | 5.48
13 | OC1CCC1C1c2ccccc2-c2cncn21 (single isomer, unassigned) [Example 01h] | 4.80
14 | OC1CCCC1C1c2ccccc2-c2cncn21 (single isomer, unassigned) [Example 02e] | 4.77
15 | OC1CCCC1C1c2ccccc2-c2cncn21 (single isomer, unassigned) [Example 02f] | 7.15
16 | OC1CCCC1C1c2ccccc2-c2cncn21 (single isomer, unassigned) [Example 02g] | 6.47
17 | OC1CCCC1C1c2ccccc2-c2cncn21 (single isomer, unassigned) [Example 02h] | < 4.60
18 | OC1CCCCC1C1c2ccccc2-c2cncn21 (single isomer, unassigned) [Example 03c] | < 4.60
19 | OC1CCCCC1C1c2ccccc2-c2cncn21 (single isomer, unassigned) [Example 03d] | 7.44

Row | SMILES | pEC50
20 | OC1CCCCC1C1c2ccccc2-c2cncn21 (single isomer, unassigned) [Example 03e] | 4.80
21 | OC1CCCCC1C1c2ccccc2-c2cncn21 (single isomer, unassigned) [Example 03f] | 6.52
22 | OC1c2cnccc2CCC1C1c2ccccc2-c2cncn21 (single isomer, unassigned) [Example 04a] | 5.89
23 | OC1c2cnccc2CCC1C1c2ccccc2-c2cncn21 (single isomer, unassigned) [Example 04b] | < 4.60
24 | OC1c2cnccc2CCC1C1c2ccccc2-c2cncn21 (single isomer, unassigned) [Example 04c] | 6.00
25 | O[C@@H]1c2cnccc2CC[C@@H]1[C@H]1c2ccccc2-c2cncn21 (single isomer, unassigned) [Example 04d] | 4.70
26 | O[C@H]1c2cnccc2CC[C@@H]1[C@@H]1c2ccccc2-c2cncn21 (single isomer, unassigned) [Example 04f] | 5.64
27 | O[C@H]1c2cnccc2CC[C@@H]1[C@@H]1c2ccccc2-c2cncn21 (single isomer, unassigned) [Example 04g] | 4.72
28 | O[C@@H]1c2cnccc2CC[C@H]1[C@H]1c2ccccc2-c2cncn21 (single isomer, unassigned) [Example 04h] | 6.89
29 | OC1COCCC1C1c2ccccc2-c2cncn21 (single isomer, unassigned) [Example 06g] | 6.25
30 | OC1COCCC1C1c2ccccc2-c2cncn21 (single isomer, unassigned) [Example 06h] | < 4.60
31 | OC1c2cncn2CCC1C1c2ccccc2-c2cncn21 (single isomer, unassigned) [Example 07a] | 4.82
32 | OC1c2cncn2CCC1C1c2ccccc2-c2cncn21 (single isomer, unassigned) [Example 07b] | < 4.60
33 | OC1c2cncn2CCC1C1c2ccccc2-c2cncn21 (single isomer, unassigned) [Example 07e] | 5.66
34 | OC1c2cncn2CCC1C1c2ccccc2-c2cncn21 (single isomer, unassigned) [Example 07f] | < 4.60
35 | O[C@H]1c2ccncc2CC[C@@H]1[C@@H]1c2ccccc2-c2cncn21 (single isomer, unassigned) [Example 08b] | 6.22
36 | O[C@H]1c2ccncc2CC[C@H]1[C@@H]1c2ccccc2-c2cncn21 (single isomer, unassigned) [Example 08c] | 5.28
37 | O[C@@H]1c2ccncc2CC[C@@H]1[C@H]1c2ccccc2-c2cncn21 (single isomer, unassigned) [Example 08d] | 6.29
38 | O[C@H]1c2ccncc2CC[C@@H]1[C@H]1c2ccccc2-c2cncn21 (single isomer, unassigned) [Example 08e] | 6.64

Row | SMILES | pEC50
39 | O[C@@H]1c2ccncc2CC[C@H]1[C@@H]1c2ccccc2-c2cncn21 (single isomer, unassigned) [Example 08f] | 4.92
40 | O[C@@H]1c2ccncc2CC[C@@H]1[C@@H]1c2ccccc2-c2cncn21 (single isomer, unassigned) [Example 08g] | 5.08
41 | O[C@H]1c2ccncc2CC[C@H]1[C@H]1c2ccccc2-c2cncn21 (single isomer, unassigned) [Example 08h] | 7.00
42 | CC(=O)N1CCC(C2c3ccccc3-c3cncn32)C(O)C1 (single isomer, unassigned) [Example 09a, 1-(3-hydroxy-4-(5H-imidazo[5,1-a]isoindol-5-yl)piperidin-1-yl)ethan-1-one] | < 4.60
43 | CC(=O)N1CCC(C2c3ccccc3-c3cncn32)C(O)C1 (single isomer, unassigned) [Example 09b, 1-(3-hydroxy-4-(5H-imidazo[5,1-a]isoindol-5-yl)piperidin-1-yl)ethan-1-one] | 5.52
44 | CC(=O)N1CCC(C2c3ccccc3-c3cncn32)C(O)C1 (single isomer, unassigned) [Example 09c, 1-(3-hydroxy-4-(5H-imidazo[5,1-a]isoindol-5-yl)piperidin-1-yl)ethan-1-one] | < 4.60
45 | CC(=O)N1CCC(C2c3ccccc3-c3cncn32)C(O)C1 (single isomer, unassigned) [Example 09d, 1-(3-hydroxy-4-(5H-imidazo[5,1-a]isoindol-5-yl)piperidin-1-yl)ethan-1-one] | < 4.60
46 | CC(C)(C)OC(=O)N1CCC(C2c3ccccc3-c3cncn32)C(O)C1 (single isomer, unassigned) [Example 10a, tert-butyl 3-hydroxy-4-(5H-imidazo[5,1-a]isoindol-5-yl)piperidine-1-carboxylate] | 5.68
47 | CC(C)(C)OC(=O)N1CCC(C2c3ccccc3-c3cncn32)C(O)C1 (single isomer, unassigned) [Example 10b, tert-butyl 3-hydroxy-4-(5H-imidazo[5,1-a]isoindol-5-yl)piperidine-1-carboxylate] | < 4.60
48 | CC(C)(C)OC(=O)N1CCC(C2c3ccccc3-c3cncn32)C(O)C1 (single isomer, unassigned) [Example 10c, tert-butyl 3-hydroxy-4-(5H-imidazo[5,1-a]isoindol-5-yl)piperidine-1-carboxylate] | 4.72
49 | CC(C)(C)OC(=O)N1CCC(C2c3ccccc3-c3cncn32)C(O)C1 (single isomer, unassigned) [Example 10d, tert-butyl 3-hydroxy-4-(5H-imidazo[5,1-a]isoindol-5-yl)piperidine-1-carboxylate] | < 4.60
50 | CC(C)(C)OC(=O)N1CCC(O)C(C2c3ccccc3-c3cncn32)C1 (single isomer, unassigned) [Example 11c, tert-butyl 4-hydroxy-3-(5H-imidazo[5,1-a]isoindol-5-yl)piperidine-1-carboxylate] | < 4.60
51 | CC(C)(C)OC(=O)N1CCC(O)C(C2c3ccccc3-c3cncn32)C1 (single isomer, unassigned) [Example 11d, tert-butyl 4-hydroxy-3-(5H-imidazo[5,1-a]isoindol-5-yl)piperidine-1-carboxylate] | 4.66
52 | CC(=O)N1CCC(O)C(C2c3ccccc3-c3cncn32)C1 (single isomer, unassigned) [Example 12a] | 5.57
53 | CC(=O)N1CCC(O)C(C2c3ccccc3-c3cncn32)C1 (single isomer, unassigned) [Example 12b] | < 4.60
54 | CC(=O)N1CC[C@H](O)[C@@H]([C@H]2c3ccccc3-c3cncn32)C1 (single isomer, unassigned) [Example 12c] | < 4.60
55 | CC(=O)N1CC[C@@H](O)[C@H]([C@@H]2c3ccccc3-c3cncn32)C1 (single isomer, unassigned) [Example 12d] | < 4.60
56 | N#CCN1CCC(O)C(C2c3ccccc3-c3cncn32)C1 (single isomer, unassigned) [Example 14a] | 6.44
